Assay results published in ChEMBL document CHEMBL4265869, “Prodrugs of triterpenoids and their derivatives” (Eur J Med Chem, 2017).
pEC50, pIC50: −log10 of the molar value.

Columns and labels:
[1] = test system: 518A2; experiment: Cytotoxicity in human 518A2 cells by photometric SRB assay; assay type: functional, cell-based
[2] = test system: FaDu; experiment: Cytotoxicity in human FADU cells by photometric SRB assay; assay type: functional, cell-based
[3] = test system: HT-29; experiment: Cytotoxicity in human HT-29 cells by photometric SRB assay; assay type: functional, cell-based
[4] = test system: MCF7; experiment: Cytotoxicity in human MCF7 cells by photometric SRB assay; assay type: functional, cell-based
[5] = test system: A549; experiment: Cytotoxicity in human A549 cells by photometric SRB assay; assay type: functional, cell-based
[6] = test system: SW-1736; experiment: Cytotoxicity in human SW1736 cells by photometric SRB assay; assay type: functional, cell-based
[7] = Selectivity index, ratio of EC50 for mouse NIH/3T3 cells to EC50 for human A549 cells; assay type: toxicity; conditions: NIH/3T3 cells and A549 cells, read-out: Ratio EC50
[8] = test system: A549; experiment: Cytotoxicity in human A549 cells; assay type: functional, cell-based

COC(=O)[C@]12CCC(C)(C)C[C@H]1C1=CC[C@@H]3[C@@]4(C)C[C@@H](O)[C@H](OS(N)(=O)=O)C(C)(C)[C@@H]4CC[C@@]3(C)[C@]1(C)CC2
pEC50 [1]: 5.46 to 5.66 | pEC50 [2]: 5.46 to 5.66 | pEC50 [3]: 5.46 to 5.66 | pEC50 [4]: 5.46 to 5.66 | pEC50 [5]: 5.46 to 5.66 | pEC50 [6]: 5.46 to 5.66

COC(=O)[C@]12CCC(C)(C)C[C@H]1C1=CC(=O)[C@@H]3[C@@]4(C)CC[C@H](OS(N)(=O)=O)C(C)(C)[C@@H]4CC[C@@]3(C)[C@]1(C)CC2
selectivity ratio [7]: 2.7

C/C=C(\C)C(=O)O[C@@H]1CC(C)(C)C[C@H]2C3=CC[C@@H]4[C@@]5(C)CC[C@H](OC(=O)Cc6ccccc6Cc6c(Cl)cccc6Cl)C(C)(C)[C@@H]5CC[C@@]4(C)[C@]3(C)CCC12C(=O)O (single isomer, unassigned)
pIC50 [8]: 6.82

C/C=C(\C)C(=O)O[C@@H]1CC(C)(C)C[C@H]2C3=CC[C@@H]4[C@@]5(C)CC[C@H](Oc6ccccc6C(C)=O)C(C)(C)[C@@H]5CC[C@@]4(C)[C@]3(C)CCC12C(=O)O (single isomer, unassigned)
pIC50 [8]: 6.11

CC(C)=CC(=O)O[C@@H]1CC(C)(C)C[C@H]2C3=CC[C@@H]4[C@@]5(C)CC[C@H](OC(=O)Cc6ccccc6Cc6c(Cl)cccc6Cl)C(C)(C)[C@@H]5CC[C@@]4(C)[C@]3(C)CCC12C(=O)O (single isomer, unassigned)
pIC50 [8]: 6.38
